Measurements as given in the NIST ThermoML archive (doi:10.1021/acs.jced.9b00243).
± gives the expanded uncertainty stated by the source.

Legend:
[1] = Molar enthalpy of transition or fusion; conditions: Crystal; DSC
[2] = Crystal; DSC

Molar enthalpy of transition or fusion [1]: 3.4 ± 0.22 kcal/mol | Triple point temperature [2]: 351.59 ± 1.2 K
Structure (SMILES): N#CCc1ccccc1[N+](=O)[O-] [o-nitrophenylacetonitrile]
